Where a SMILES comes first, the peptide text is derived from it. [ ]: non-standard residue; d: D form. ξ: configuration not given here. ξαMeBip(2'-Et,4'-OMe) = CCc1cc(OC)ccc1-c1ccc(CC(C)(N)C(=O)O)cc1; ξBip(2'-Et-4'-OMe) = CCc1cc(OC)ccc1-c1ccc(CC(N)C(=O)O)cc1; ξαMe(hhPhe) = CC(N)(CCCc1ccccc1)C(=O)O; ξαMePhe(2-F) = CC(N)(Cc1ccccc1F)C(=O)O; hhPhe = N[C@@H](CCCc1ccccc1)C(=O)O; hArg = N=C(N)NCCCC[C@H](N)C(=O)O; ξαMeNle = CCCCC(C)(N)C(=O)O; ξαMeV = CC(C)C(C)(N)C(=O)O; ξαMeM = CSCCC(C)(N)C(=O)O; Nle = CCCC[C@H](N)C(=O)O; Ac5c = NC1(C(=O)O)CCCC1; Aib = CC(C)(N)C(=O)O
Columns and labels:
Format in all cases: in vitro ADME
[1] = Stability of peptides in human plasma; settings: human, plasma; for metabolised at 24 h, 2 μM: pH 7.8
Procedure, shortened: (§1)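 Peptides at 2 μM final incubated 0–24 h at 37 °C (50 mM triethanolamine-HCl, pH 7.8) in each matrix, matrix level set to degrade ~50% PTH(1-34) in 1 h; TFA-quenched, C18 HPLC at 206 nm with ESI-MS peak identification; percent degradation from peak areas at each time point.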

[2] = Stability of peptides in simulated gastric fluid (pH 1.5; HCl, NaCl and Pepsin); settings: pH 1.5; for % degradation of peptides in 24 h when incubated with simulated gastric fluid: 2 μM; for half-life: simulated gi fluid
[3] = Stability of peptides in simulated intestinal fluid (pH 7.5); settings: pH 7.5; for half-life: simulated gi fluid; for % degradation of peptides in 24 h when incubated with simulated intestinal fluid: 2 μM
Procedure, shortened: as §1

[4] = Stability of peptides in human liver microsomes; settings: human, microsomes; for % degradation of peptides in 24 h when incubated with liver microsomes: 2 μM, pH 7.8
Procedure, shortened: as §1

half-life [1] [min]	metabolised at 24 h, 2 μM [1] [%]	% degradation of peptides in 24 h when incubated with simulated gastric fluid [2] [%]	half-life [2] [min]	half-life [3] [min]	% degradation of peptides in 24 h when incubated with simulated intestinal fluid [3] [%]	half-life (t1/2) in liver microsomes [4]	% degradation of peptides in 24 h when incubated with liver microsomes [4] [%]	half-life (t1/2) in human plasma [1]	half-life [4] [min]	Structure (SMILES)
> 1440	0	00	> 1440	> 1440	00	(5) h	26	–	–	CCc1cc(OC)ccc1-c1ccc(CC(C)(NC(=O)[C@H](CCCCNC(=N)N)NC(=O)[C@H](C)NC(=O)[C@H](CCCCNC(=N)N)NC(=O)[C@H](CCC(N)=O)NC(=O)[C@H](Cc2c[nH]cn2)NC(=O)[C@H](CCSC)NC(=O)[C@H](CC(C)C)NC(=O)[C@H](CCC(N)=O)NC(=O)[C@@H](NC(=O)[C@H](CCC(=O)O)NC(=O)C(C)(C)NC(=O)[C@@H](NC(=O)C(C)(C)N)C(C)C)[C@@H](C)CC)C(=O)N[C@@H](CCCc2ccccc2)C(N)=O)cc1 (some centres unmarked) [Seq. ID. 898] (H-[Aib]V[Aib]EIQLMHQ[hArg]A[hArg][ξαMeBip(2'-Et,4'-OMe)][hhPhe]-NH2)
–	77	100	30	30	100	–	100	(9) h	30	CCc1cc(OC)ccc1-c1ccc(CC(C)(NC(=O)[C@H](CCCCNC(=N)N)NC(=O)[C@H](C)NC(=O)[C@H](CCCCNC(=N)N)NC(=O)[C@H](CCC(N)=O)NC(=O)[C@H](Cc2c[nH]cn2)NC(=O)C(C)(CCSC)NC(=O)[C@H](CC(C)C)NC(=O)[C@H](CCC(N)=O)NC(=O)[C@@H](NC(=O)[C@H](CCC(=O)O)NC(=O)C(C)(C)NC(=O)[C@@H](NC(=O)C(C)(C)N)C(C)C)[C@@H](C)CC)C(=O)N[C@@H](CCCc2ccccc2)C(N)=O)cc1 (some centres unmarked) [Seq. ID. 910] (H-[Aib]V[Aib]EIQL[ξαMeM]HQ[hArg]A[hArg][ξαMeBip(2'-Et,4'-OMe)][hhPhe]-NH2)
–	80	100	30	30	100	–	100	(9) h	30	CCCCC(C)(NC(=O)[C@H](CC(C)C)NC(=O)[C@H](CCC(N)=O)NC(=O)[C@@H](NC(=O)[C@H](CCC(=O)O)NC(=O)C(C)(C)NC(=O)[C@@H](NC(=O)C(C)(C)NC(=O)[C@@H](N)C(C)C)C(C)C)[C@@H](C)CC)C(=O)N[C@@H](Cc1c[nH]cn1)C(=O)N[C@@H](CCC(N)=O)C(=O)N[C@@H](CCCCNC(=N)N)C(=O)N[C@@H](C)C(=O)N[C@@H](CCCCNC(=N)N)C(=O)NC(C)(Cc1ccc(-c2ccc(OC)cc2CC)cc1)C(=O)N[C@@H](CCCc1ccccc1)C(N)=O (some centres unmarked) [Seq. ID. 915] (H-V[Aib]V[Aib]EIQL[ξαMeNle]HQ[hArg]A[hArg][ξαMeBip(2'-Et,4'-OMe)][hhPhe]-NH2)

More lines, now with the values behind:

Structure (SMILES)	half-life [1] [min]	metabolised at 24 h, 2 μM [1] [%]	% degradation of peptides in 24 h when incubated with simulated gastric fluid [2] [%]	half-life [2] [min]	half-life [3] [min]	% degradation of peptides in 24 h when incubated with simulated intestinal fluid [3] [%]	half-life (t1/2) in liver microsomes [4]	% degradation of peptides in 24 h when incubated with liver microsomes [4] [%]	half-life (t1/2) in human plasma [1]	half-life [4] [min]
CCCC[C@H](NC(=O)[C@H](CC(C)C)NC(=O)[C@H](CCC(N)=O)NC(=O)[C@@H](NC(=O)[C@H](CCC(=O)O)NC(=O)C(C)(C)NC(=O)[C@@H](NC(=O)C1(NC(=O)C(C)(N)C(C)C)CCCC1)C(C)C)[C@@H](C)CC)C(=O)N[C@@H](Cc1c[nH]cn1)C(=O)N[C@@H](CCC(N)=O)C(=O)N[C@@H](CCCCNC(=N)N)C(=O)N[C@@H](C)C(=O)N[C@@H](CCCCN)C(=O)NC(Cc1ccc(-c2ccc(OC)cc2CC)cc1)C(=O)NC(C)(CCCc1ccccc1)C(N)=O (some centres unmarked) [Seq. ID. 895] (H-[ξαMeV][Ac5c]V[Aib]EIQL[Nle]HQ[hArg]AK[ξBip(2'-Et-4'-OMe)][ξαMe(hhPhe)]-NH2)	> 1440	0	00	> 1440	> 1440	00	(5) h	33	–	–
CCc1cc(OC)ccc1-c1ccc(CC(NC(=O)[C@H](CCCCNC(=N)N)NC(=O)[C@H](C)NC(=O)[C@H](CCCCNC(=N)N)NC(=O)[C@H](CCC(N)=O)NC(=O)[C@H](Cc2c[nH]cn2)NC(=O)[C@H](CCSC)NC(=O)[C@H](CC(C)C)NC(=O)[C@H](CCC(N)=O)NC(=O)[C@@H](NC(=O)[C@H](CCC(=O)O)NC(=O)C(C)(C)NC(=O)[C@@H](NC(=O)C2(NC(=O)C(C)(N)C(C)C)CCCC2)C(C)C)[C@@H](C)CC)C(=O)NC(C)(CCCc2ccccc2)C(N)=O)cc1 (some centres unmarked) [Seq. ID. 906] (H-[ξαMeV][Ac5c]V[Aib]EIQLMHQ[hArg]A[hArg][ξBip(2'-Et-4'-OMe)][ξαMe(hhPhe)]-NH2)	–	78	100	30	30	100	–	100	(9) h	30
CCc1cc(OC)ccc1-c1ccc(CC(NC(=O)[C@H](CCCCNC(=N)N)NC(=O)[C@H](C)NC(=O)[C@H](CCCCNC(=N)N)NC(=O)[C@H](CCC(N)=O)NC(=O)[C@H](Cc2c[nH]cn2)NC(=O)C(C)(CCSC)NC(=O)[C@H](CC(C)C)NC(=O)[C@H](CCC(N)=O)NC(=O)[C@@H](NC(=O)[C@H](CCC(=O)O)NC(=O)C(C)(C)NC(=O)[C@@H](NC(=O)C(C)(C)NC(=O)[C@@H](N)C(C)C)C(C)C)[C@@H](C)CC)C(=O)NC(C)(CCCc2ccccc2)C(N)=O)cc1 (some centres unmarked) [Seq. ID. 920] (H-V[Aib]V[Aib]EIQL[ξαMeM]HQ[hArg]A[hArg][ξBip(2'-Et-4'-OMe)][ξαMe(hhPhe)]-NH2)	> 1440	0	00	> 1440	> 1440	00	(5) h	35	–	–
CC[C@H](C)[C@H](NC(=O)[C@H](CCC(=O)O)NC(=O)C(C)(C)NC(=O)[C@@H](NC(=O)C(C)(C)N)C(C)C)C(=O)N[C@@H](CCC(N)=O)C(=O)N[C@@H](CC(C)C)C(=O)NC(C)(CCSC)C(=O)N[C@@H](Cc1c[nH]cn1)C(=O)N[C@@H](CCC(N)=O)C(=O)N[C@@H](CCCCNC(=N)N)C(=O)N[C@@H](C)C(=O)N[C@@H](CCCCNC(=N)N)C(=O)NC(C)(Cc1ccccc1F)C(=O)N[C@@H](CCCc1ccccc1)C(N)=O (some centres unmarked) [Seq. ID. 930] (H-[Aib]V[Aib]EIQL[ξαMeM]HQ[hArg]A[hArg][ξαMePhe(2-F)][hhPhe]-NH2)	> 1440	0	00	> 1440	> 1440	00	(5) h	32	–	–
